Read-outs that look alike come from different tables or passages of the source. Where a SMILES comes first, the peptide text is derived from it. Bridges are numbered along the chain shown (N, C = ends).
Experiments:
SHIV = settings: macaques; ref [61]; cited from earlier work
Text: Moreover, HD5 may share the mechanism of action of cyanovirin-N, a lectin-like protein that binds to mannose moieties in gp120 and of mAb IgG1b12, with which it competes for the same binding site on CD4 receptor. Both of these virus-targeting entry-inhibitors have been reported to protect macaques from vaginal SHIV ...

HIV-1 envelope = settings: envelope not stated
[1] = tested on: primary isolate HIV-1J176 in purified CD4+ T lymphocytes
Description: Viral stocks were titrated on activated human CD4^+ T cells.
PBMCs were isolated from healthy blood donors by standard Ficoll-HyPaque (Pharmacia, Uppsala, Sweden) density gradient centrifugation from concentrated leukocytes of healthy blood donors and stimulated with 5 µg/ml PHA (Sigma, St. Louis, MO) in complete RPMI medium supplemented with 10% FBS and 50 U/ml recombinant IL-2 (Proleukin; Chiron Corporation, Emeryville, CA) (RPMI-10). After 3 days in culture, CD4^+ T cell population was enriched by negative immunomagnetic selection using Dynabeads M-450 (Invitrogen Carlsbad, CA) coated with monoclonal antibodies to CD8, CD14, CD19 and CD56 (Sigma, St. Louis, MO) according to the manufacturer’s protocol. Infection was carried out by spinoculation for 1.5 hours as previously described [32] with minor modifications. […]
The HIV-1 p24 Ag concentrations in the culture supernatants were determined by enzyme-linked immunosorbent assay (ELISA) at days 4 and 6 post-infection as previously described [68]. […] Bound p24 Ag was then detected using an alkaline phosphatase–conjugated anti-p24 monoclonal antibody (BC 1071-AP; Aalto Bio Reagents) and the AMPAK ELISA amplification system (DAKO A/S, Glostrup, Denmark).

X4 HIV-1 envelopes = settings: read-out: mean IC50, envelope-mediated fusion, PM1 effector cells, NIH-3T3 CD4/CXCR4 target cells, 2 h at 37°C, medium without FCS, β-galactosidase, 3 experiments
gp120/CD4 = gp120/CD4 (Homo sapiens, UniProt P01730); test: biochemical
Description: (§1) Flat-bottom, 96-well MaxiSorp plates (NUNC, Roskilde, Denmark) were coated with recombinant sCD4 (5 µg/well) or HIV-1BaL gp120 (2 µg/well) in phosphate-buffered saline (PBS) for 18 hrs at 4°C. Bovine serum albumin (BSA) 3% was used for blocking the plates. Antibodies were added in 100 µl PBS+0.05%BSA and incubated for 1 hr at 37°C, after which the plate was washed and incubated for an additional hour at room temperature with the secondary antibody. Peroxidase-conjugated, affinity-purified goat-anti-mouse IgG or goat-anti-human IgG (Dako, Glostrup, Denmark) were used as secondary antibodies. […] The specific signal was calculated by subtracting background values obtained from replicate wells containing all the reagents except the specific ligand for each assay. Binding of mAbs 17b and 48d, directed to CD4-induced epitopes, was performed after preincubation of immobilized gp120 with sCD4 (2 µg/well) in PBS for 20 min at 37°C [65].

[2] = biological target: recombinant soluble CD4 (sCD4) (Homo sapiens, UniProt P01730); test: biochemical
Description: as §1

[3] = biological target: recombinant HIV-1 gp120 from isolate BaL (HIV-1 isolate BaL); test: ELISA; competition: increasing HD5 against the binding of sCD4 and gp120; the text has gp120 on plastic and sCD4 in solution, the legend has sCD4 coated at 5 µg/mL and gp120BaL in solution; HD5 added first and kept in the wells
[4] = biological target: recombinant human soluble CD4 (human); test: ELISA; competition: increasing HD5 against anti-CD4 mAb (Leu3a; OKT4) for binding to plastic-immobilised sCD4 (coated at 5 µg/mL); HD5 added before the mAb and kept in the wells
[5] = biological target: recombinant HIV-1 gp120 from isolate SF162 (HIV-1 isolate SF162); test: ELISA; competition: increasing HD5 against mAb IgG1b12 (5 µg/mL) for binding to plastic-immobilised recombinant gp120; PBS + 0.05% BSA, 1 hr at 37°C

cyanovirin-N
protection from vaginal SHIV-challenge (SHIV): protect macaques from vaginal SHIV-challenge

CC[C@H](C)[C@@H]1NC(=O)[C@H](CCC(=O)O)NC(=O)[C@@H]2CSSC[C@@H]3NC(=O)[C@H](Cc4ccc(O)cc4)NC(=O)[C@@H](NC(=O)[C@@H](NC(=O)[C@H](C)N)[C@@H](C)O)CSSC[C@@H](C(=O)N[C@@H](CCCNC(=N)N)C(=O)O)NC(=O)[C@H](CSSC[C@H](NC(=O)[C@H](CCCNC(=N)N)NC(=O)CNC(=O)[C@H]([C@@H](C)O)NC(=O)[C@H](CCCNC(=N)N)NC3=O)C(=O)N[C@@H](C)C(=O)N[C@@H]([C@@H](C)O)C(=O)N[C@@H](CCCNC(=N)N)C(=O)N[C@@H](CCC(=O)O)C(=O)N[C@@H](CO)C(=O)N[C@@H](CC(C)C)C(=O)N[C@@H](CO)C(=O)NCC(=O)N[C@@H](C(C)C)C(=O)N2)NC(=O)[C@H](CC(C)C)NC(=O)[C@H](CCCNC(=N)N)NC(=O)[C@H](Cc2ccc(O)cc2)NC(=O)[C@H](CC(C)C)NC(=O)[C@H](CCCNC(=N)N)NC(=O)CNC(=O)[C@H](CO)NC1=O [HD5] (H-ATCYCRTGRCATRESLSGVCEISGRLYRLCCR-OH; disulfide 3-31, 5-20, 10-30)
IC50 (HIV-1 envelope; read-out: IC50, fusion with FBS, with FBS (2.5% vol/vol)): 56000 nM
IC50 (HIV-1 envelope; read-out: IC50, fusion without FBS, without FBS): 2300 nM
IC50 ([1]; primary isolate 1J176 in purified CD4+ T lymphocytes, 1 h): 60 nM
IC50 ([1]; read-out: half-maximal inhibitory concentration (IC50), HIV-1 replication, HIV-1J176, no serum (RPMI-0.3-ITS: 0.3% human AB serum, ITS, rIL-2 50 U/ml), virions pre-incubated with HD5 1 h at 37°C, spinoculation 1.5 h, p24 ELISA day 6, mean of 3 experiments in triplicate): 400 nM
IC50 (X4 HIV-1 envelopes): 2770 ± 380 nM
IC50 (gp120/CD4): 900 nM
IC50 [2]: 1800 nM

ATCYCRTGRCATRESLSGVCEISGRLYRLCCR [human α-defensin-5]
IC50 [3]: 900 nM
IC50 [4]: 1800 nM
IC50 [5]: 6500 nM
